These results are taken from patent US20080235828A1 (University of Manitoba, priority 2004, published 2008).

One assay deals with T1, FCA-WF protein (Arabidopsis thaliana, UniProt O04425, W619F).
T1 sequence (O04425 1-747 W619F): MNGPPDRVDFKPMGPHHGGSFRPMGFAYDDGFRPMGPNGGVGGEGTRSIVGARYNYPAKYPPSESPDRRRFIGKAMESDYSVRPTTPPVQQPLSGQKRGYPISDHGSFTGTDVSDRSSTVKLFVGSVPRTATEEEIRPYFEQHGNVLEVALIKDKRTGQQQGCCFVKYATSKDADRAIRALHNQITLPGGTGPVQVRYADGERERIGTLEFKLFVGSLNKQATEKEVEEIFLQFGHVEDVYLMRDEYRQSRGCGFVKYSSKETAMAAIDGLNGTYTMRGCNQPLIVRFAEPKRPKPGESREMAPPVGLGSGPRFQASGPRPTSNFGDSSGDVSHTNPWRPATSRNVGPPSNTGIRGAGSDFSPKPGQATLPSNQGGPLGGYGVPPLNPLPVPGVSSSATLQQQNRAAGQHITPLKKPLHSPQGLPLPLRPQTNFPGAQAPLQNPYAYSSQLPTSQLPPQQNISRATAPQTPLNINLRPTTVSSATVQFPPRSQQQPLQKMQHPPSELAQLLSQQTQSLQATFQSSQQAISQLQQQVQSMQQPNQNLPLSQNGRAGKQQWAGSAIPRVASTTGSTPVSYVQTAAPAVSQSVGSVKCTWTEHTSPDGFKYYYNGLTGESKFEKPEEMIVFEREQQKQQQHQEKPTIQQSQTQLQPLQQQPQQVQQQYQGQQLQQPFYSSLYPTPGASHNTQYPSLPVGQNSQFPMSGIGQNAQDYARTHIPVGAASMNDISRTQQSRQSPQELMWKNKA
The assay can be described thus: ABA binding assay with FCA-WF (mutated WW domain). Conditions: mutation in the second W of WW domain. The method, then: The GST:FCA-WW-FY interaction mixture was incubated for 90 minutes before 1 μM ^3H^+-ABA was added and the mixture pelletted, washed, and the dual activity for [^35S]-met-FY and ^3H^+-ABA were counted as described above.
Similarly, FCA-WF protein was used and binding assays were carried out as above. […] The FCA ^3H^+-ABA binding activity in the absence of FY reached approximately 50% saturation at 15 minutes and approximately 95% saturation at 45 minutes. Each data point represents triplicate assays and error bars represent standard deviation.

Another assay concerns FCA/FY interaction. The assay can be described thus: GST pull-down of FCA/FY interaction in the presence of ABA. The class given is binding, Arabidopsis. The procedure: All in vitro translation and GST pull-down assays were carried out as described by supplier's protocols (Promega, Madison, Wis.) with modifications^S and as follows. For GST in vitro pull-down assays, 15 μL GST affinity resin was incubated with 250 μL FCA clear lysate, pelleted and the complex blocked and washed with IP buffer as described^S. For the determination of the amount of FCA bound to GST resin, the pellet was resuspended with 200 μL of 15 mM GSH to elute FCA and the supernatant was recovered by centrifugation. FY protein to be tested for interaction with the GST-FCA fusion protein was synthesized from a plasmid template and labeled with [^35S]-methionine using the T7 TNT coupled Transcription/Translation System (Promega). Twenty μL of FY labeled protein and 180 μL of interaction buffer (12.5 mM Tris-HCl, pH 7.3 containing 5 mM KCl, 1 mM MgCl2, and 100 mM NaCl) were used to resuspend the GST:FCA after the final wash. The protein binding/interaction reaction was carried out for 90 minutes at 4° C. with continuous gentle mixing. The newly formed complex was then washed three times with 500 μL of IP wash buffer. After the final wash, the complex was resuspended, first with 10 μL of 1 5 mM GSH to facilitate the dissociation of interacted proteins from GST resin and then 10 μL of 2×SDS-PAGE sample buffer was added to the mixture and boiled for 5 minutes for complete elution of the proteins from the agarose beads. The beads were pelleted by centrifugation and supernatant was loaded on a 12% SDS-PAGE gel. The gel was dried and exposed to Kodak X-ray film for 18 hours at −70° C. and film was developed for the detection of labelled proteins.
FCA was bound with […] for 30 minutes at which time the FCA/FY translated product was added to the incubation mixture. The interaction between FCA/FY was carried out in the presence of either (−)- or (+)-ABA in binding buffer as described above. Released proteins were separated on SDS-PAGE and labelled proteins were detected as described above. FCA-WW-FY was used as a control.

abscisic acid [ABA]: the “3H+-ABA binding ratio relative to non-mutated FCA-WW protein” value at FCA-WF protein is reported as “virtually a similar ratio”. The “inhibition of FCA/FY interaction” value in the assay on FCA/FY interaction (FCA pre-bound with ABA for 30 min) is “significantly inhibited”. Besides, the FCA/FY interaction remaining result with FCA/FY interaction (at 1 μM ABA) was “virtually no significant interaction”.
